Measurements reported in PubChem BioAssay (NCI).
Values joined by “and” are separate entries in the source; they are usually repeats but may differ in a detail not shown here. Equal values may be shown once.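 All cell lines were grown in 96-well plates and treated with compound for 48 hours. GI50 is the concentration that inhibits growth by half. At the TGI there is no net growth.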

Columns and labels:
Assay in all cases: NCI anticancer screen, dose series, 48 h
[1] = test system: NCI/ADR-RES ovarian
[2] = test system: A498 renal
[3] = test system: HS 578T breast
[4] = test system: T-47D breast
[5] = test system: TK-10 renal
[6] = test system: SNB-75 CNS
[7] = test system: U251 CNS
[8] = test system: SF-268 CNS
[9] = test system: UACC-62 melanoma
[10] = test system: COLO 205 colon
[11] = test system: HOP-62 NSCLC
[12] = test system: SK-MEL-5 melanoma
[13] = test system: MCF7 breast
[14] = test system: SW-620 colon
[15] = test system: NCI-H23 lung
[16] = test system: A549 NSCLC
[17] = test system: CAKI-1 renal
[18] = test system: MALME-3M melanoma
[19] = test system: IGROV1 ovarian
[20] = test system: K-562 leukemia
[21] = test system: HL-60(TB) leukemia
[22] = test system: RPMI-8226 leukemia
[23] = test system: SK-MEL-2 melanoma
[24] = test system: SR leukemia
[25] = test system: MOLT-4 leukemia
[26] = test system: NCI-H460 lung
[27] = test system: SK-MEL-28 melanoma
[28] = test system: OVCAR-4 ovarian
[29] = test system: ACHN renal
[30] = test system: SK-OV-3 ovarian
[31] = test system: CCRF-CEM leukemia
[32] = test system: M14 melanoma
[33] = test system: MDA-MB-435
[34] = test system: RXF 393 renal
[35] = test system: 786-0 renal
[36] = test system: HOP-92 NSCLC
[37] = test system: NCI-H522 lung
[38] = test system: OVCAR-3 ovarian
[39] = test system: EKVX NSCLC
[40] = test system: KM12 colon
[41] = test system: SN12C renal
[42] = test system: NCI-H226 lung
[43] = test system: SF-295 CNS
[44] = test system: HCC-2998 colon
[45] = test system: PC-3 prostate
[46] = test system: OVCAR-5 ovarian
[47] = test system: OVCAR-8 ovarian
[48] = test system: LOX IMVI melanoma
[49] = test system: UO-31 renal
[50] = test system: BT-549 breast
[51] = test system: SNB-19 CNS
[52] = test system: HCT-15 colon
[53] = test system: HT29 colon
[54] = test system: DU-145 prostate
[55] = test system: UACC-257 melanoma
[56] = test system: SF-539 CNS
[57] = test system: HCT-116 colon

c1ccc(Cn2c(-c3ccc(OC[C@H](C4CCNCC4)n4c(-c5ccccc5)nc5ccccc54)cc3)nc3ccccc32)cc1
GI50 [1]: 7.74 µM | TGI [1]: > 80.7 µM | GI50 [2]: 1.48 µM | TGI [2]: 2.83 µM | GI50 [3]: 2 µM | TGI [3]: 4.79 µM | GI50 [4]: 2.19 µM | TGI [4]: 4.72 µM | GI50 [5]: 1.63 µM | TGI [5]: 3.08 µM

C=CCN1C(=O)CS/C1=N/NC(=O)C(O)(c1ccccc1)c1ccccc1
TGI [6]: > 10 µM | TGI [7]: > 10 µM | TGI [8]: > 10 µM | TGI [9]: > 10 µM | TGI [1]: > 10 µM | TGI [10]: > 10 µM | TGI [11]: > 10 µM | TGI [12]: > 10 µM | TGI [13]: > 10 µM | TGI [4]: > 10 µM | TGI [14]: > 10 µM | TGI [15]: > 10 µM | TGI [16]: > 10 µM | TGI [17]: > 10 µM | TGI [18]: > 10 µM | TGI [19]: > 10 µM | TGI [20]: > 10 µM | TGI [21]: > 10 µM | TGI [22]: > 10 µM | TGI [23]: > 10 µM | TGI [24]: > 10 µM | TGI [25]: > 10 µM | TGI [26]: > 10 µM | TGI [27]: > 10 µM | TGI [28]: > 10 µM | TGI [29]: > 10 µM | TGI [30]: > 10 µM | TGI [31]: > 10 µM | TGI [32]: > 10 µM | TGI [33]: > 10 µM | TGI [34]: > 10 µM | TGI [35]: > 10 µM | TGI [36]: > 10 µM

N#Cc1ccc(C(c2ccc(C#N)cc2)n2cncn2)cc1
GI50 [6]: > 5000 µM | TGI [6]: > 5000 µM | GI50 [7]: 2850 µM | TGI [7]: > 5000 µM | GI50 [8]: > 5000 µM | TGI [8]: > 5000 µM | GI50 [9]: 51.5 µM | TGI [37]: > 5000 µM | GI50 [1]: > 5000 µM | TGI [1]: > 5000 µM | TGI [2]: > 5000 µM | GI50 [10]: > 5000 µM | TGI [10]: > 5000 µM | GI50 [3]: 1540 µM | TGI [3]: > 5000 µM | GI50 [11]: 915 µM | TGI [11]: > 5000 µM | GI50 [12]: 3.33 µM | TGI [12]: > 5000 µM | GI50 [13]: > 5000 µM | TGI [13]: > 5000 µM | GI50 [38]: > 5000 µM | TGI [38]: > 5000 µM | GI50 [4]: > 5000 µM | TGI [4]: > 5000 µM | GI50 [39]: > 5000 µM | TGI [39]: > 5000 µM | GI50 [40]: > 5000 µM | TGI [40]: > 5000 µM | GI50 [41]: > 5000 µM | TGI [41]: > 5000 µM | GI50 [14]: > 5000 µM | TGI [14]: > 5000 µM | GI50 [42]: > 5000 µM | TGI [42]: > 5000 µM | GI50 [15]: > 5000 µM | TGI [15]: > 5000 µM | GI50 [16]: > 5000 µM | TGI [16]: > 5000 µM | GI50 [17]: > 5000 µM | TGI [17]: > 5000 µM | GI50 [18]: > 5000 µM | TGI [18]: > 5000 µM | GI50 [19]: 47.5 µM | GI50 [43]: 182 µM | TGI [43]: > 5000 µM | GI50 [44]: > 5000 µM | TGI [44]: > 5000 µM | GI50 [20]: 3800 µM | TGI [20]: > 5000 µM | GI50 [45]: > 5000 µM | TGI [45]: > 5000 µM | GI50 [46]: > 5000 µM | TGI [46]: > 5000 µM | GI50 [21]: > 5000 µM | TGI [21]: > 5000 µM | GI50 [22]: > 5000 µM | TGI [22]: > 5000 µM | TGI [47]: > 5000 µM | GI50 [48]: > 5000 µM | TGI [48]: > 5000 µM | GI50 [49]: 60.8 µM and 119 µM | TGI [49]: > 5000 µM | GI50 [24]: > 5000 µM | TGI [24]: > 5000 µM | TGI [50]: > 5000 µM | GI50 [25]: > 5000 µM | TGI [25]: > 5000 µM | GI50 [5]: 1310 µM | TGI [5]: > 5000 µM | GI50 [51]: > 5000 µM | TGI [51]: > 5000 µM | GI50 [52]: > 5000 µM | TGI [52]: > 5000 µM | GI50 [26]: > 5000 µM | TGI [26]: > 5000 µM | TGI [27]: > 5000 µM | GI50 [28]: > 5000 µM | TGI [28]: > 5000 µM | GI50 [29]: > 5000 µM | TGI [29]: > 5000 µM | GI50 [30]: > 5000 µM | TGI [30]: > 5000 µM | GI50 [53]: > 5000 µM | TGI [53]: > 5000 µM | GI50 [31]: > 5000 µM | TGI [31]: > 5000 µM | GI50 [54]: > 5000 µM | TGI [54]: > 5000 µM | GI50 [32]: > 5000 µM | TGI [32]: > 5000 µM | GI50 [55]: > 5000 µM | TGI [55]: > 5000 µM | GI50 [33]: > 5000 µM | TGI [33]: > 5000 µM | GI50 [34]: 18.3 µM | GI50 [56]: 1250 µM | TGI [56]: > 5000 µM | GI50 [35]: > 5000 µM | TGI [35]: > 5000 µM

CC1(C)CC(=O)c2c(nc(SSc3nc4c(c(-c5ccccc5)c3C#N)C(=O)CC(C)(C)C4)c(C#N)c2-c2ccccc2)C1
TGI [6]: > 10 µM | TGI [7]: > 10 µM | TGI [8]: > 10 µM | TGI [37]: > 10 µM | TGI [1]: > 10 µM | TGI [2]: > 10 µM | TGI [10]: > 10 µM | TGI [3]: > 10 µM | TGI [11]: > 10 µM | TGI [12]: > 10 µM | TGI [13]: > 10 µM | TGI [38]: > 10 µM | TGI [4]: > 10 µM | TGI [39]: > 10 µM | TGI [40]: > 10 µM | TGI [41]: > 10 µM | TGI [14]: > 10 µM | TGI [42]: > 10 µM | TGI [15]: > 10 µM | TGI [16]: > 10 µM | TGI [17]: > 10 µM | TGI [18]: > 10 µM | TGI [19]: > 10 µM | TGI [43]: > 10 µM | TGI [44]: > 10 µM | TGI [20]: > 10 µM | TGI [45]: > 10 µM | TGI [46]: > 10 µM | TGI [21]: > 10 µM | TGI [57]: > 10 µM | TGI [22]: > 10 µM | TGI [47]: > 10 µM | TGI [48]: > 10 µM | TGI [23]: > 10 µM | TGI [49]: > 10 µM | TGI [50]: > 10 µM | TGI [25]: > 10 µM | TGI [5]: > 10 µM | TGI [51]: > 10 µM | TGI [52]: > 10 µM | TGI [26]: > 10 µM | TGI [27]: > 10 µM | TGI [28]: > 10 µM | TGI [29]: > 10 µM | TGI [30]: > 10 µM | TGI [53]: > 10 µM | TGI [31]: > 10 µM | TGI [54]: > 10 µM | TGI [32]: > 10 µM | TGI [55]: > 10 µM | TGI [34]: > 10 µM | TGI [56]: > 10 µM | TGI [35]: > 10 µM | TGI [36]: > 10 µM

COC(=O)C1=CC(NC(=O)OCc2ccccc2)C(C(=O)c2ccccc2)C[C@@H]1Sc1ccccc1 (stereo not given in full)
TGI [20]: 7.72 µM | TGI [21]: 3.03 µM | TGI [31]: 4.99 µM
